Measurements published in US8343475B2, “Small cationic antimicrobial peptides” (priority 2006, dated 2013).
Converted amounts (≈) assume the structure as drawn. Read-outs that look alike come from different tables or passages of the source. Residues, ends and D or L forms follow the SMILES beside them.

How the values were obtained:
Format in all cases: cell-based
[1] = test system: Pseudomonas aeruginosa PAO1 strain H103
Description: The biological activity of the peptides can be determined by standard methods known to those of skill in the art, such as “minimal inhibitory concentration (MIC)” assay described in the present examples, whereby the lowest concentration at which no change in OD is observed for a given period of time is recorded as MIC.
(§1) Minimal inhibitory concentration (MIC) determination. The MIC of the peptides were measured using a modified broth microdilution method in Mueller Hinton (MH) medium (Wu M, Hancock R E W. 1999. Interaction of the cyclic antimicrobial cationic peptide bactenecin with the outer and cytoplasmic membrane. J Biol Chem 274, 29-35). Briefly, the peptides were dissolved and stored in glass vials. The assay was performed in sterile 96-well polypropylene microtitre plates were used. Serial dilutions of the peptides to be assayed were performed in 0.01% acetic acid (Fisher) containing 0.2% bovine serum albumin (Boehringer Mannheim GmbH) at 10× the desired final concentration. Ten microlitres of the 10× peptides were added to each well of a 96-well polypropylene plate containing 90 μl of MH media per well. Bacteria were added to the plate from an overnight culture at 2-7×10^5 colony forming units/ml and incubated over night at 37° C. The MIC was taken as the concentration at which no growth was observed.
(§2) Strains. For the killing assay a mini-Tn5-lux mutant in Pseudomonas aeruginosa H103 was used. The strain is called H1001 and contains a fliC::luxCDABE transcriptional fusion resulting in constitutive expression of luciferase. The bacterial strains used for the antimicrobial activity assays included Escherichia coli UB1005 (F-, nalA37, metB1), a wild-type Salmonella enterica ssp. typhimurium (S. typhimurium), wild-type Pseudomonas aeruginosa PAO1 strain H103, Enterococcus faecalis ATCC29212, Staphylococcus aureus ATCC25923, and a clinical isolate of Staphylococcus epidermidis obtained from Dr. D. Speert (Department of Medicine, University of British Columbia). Antifungal activity was tested using a lab isolate of Candida albicans obtained from Dr. B. Dill (Department of Microbiology and Immunology, University of British Columbia).

[2] = test system: lab isolate of Candida albicans
Description: as §1, §2

[3] = test system: clinical isolate of Staphylococcus epidermidis
Description: as §1, §2

[4] = test system: Enterococcus faecalis ATCC29212
Description: as §1, §2

[5] = test system: wild-type Salmonella enterica ssp. typhimurium
Description: as §1, §2

[6] = test system: Staphylococcus aureus ATCC25923
Description: as §1, §2

[7] = test system: Escherichia coli UB1005
Description: as §1, §2

[8] = indolicidin substitution variants (Table 4)

SMILES	MIC P. aerug ([1]; PAO1)	MIC C. albicans ([2]; lab isolate of)	MIC S. epi. ([3]; clinical isolate of)	MIC E. faecalis ([4]; ATCC29212)	MIC S. typhi [5]	MIC S. aureus ([6]; ATCC25923)	MIC E. coli ([7]; UB1005)	MIC E. coli [7, 8]	MIC P. aerug [1, 8]	MIC C. albicans [2, 8]	MIC S. epi. [3, 8]	MIC E. faecalis [4, 8]	MIC S. aureus [6, 8]
CC[C@H](C)[C@H](NC(=O)[C@H](CCCNC(=N)N)NC(=O)[C@H](Cc1ccccc1)NC(=O)[C@H](CCCNC(=N)N)NC(=O)[C@@H](N)CCCCN)C(=O)N[C@@H](CCCNC(=N)N)C(=O)N[C@H](C(=O)N[C@@H](C)C(=O)N[C@H](C(=O)N[C@@H](CCCNC(=N)N)C(=O)N[C@@H](CCCNC(=N)N)C(=O)N[C@@H](C)C(N)=O)C(C)C)C(C)C [HH10, KRFRIRVAVRRA] (H-KRFRIRVAVRRA-NH2; N-terminus assumed)	25 µg/mL (≈ 16.4 µM)	12 µg/mL (≈ 7.86 µM)	3.1 µg/mL (≈ 2.03 µM)	>50 µg/mL	>50 µg/mL	25 µg/mL (≈ 16.4 µM)	6 µg/mL (≈ 3.93 µM)	–	–	–	–	–	–
CC[C@H](C)[C@H](NC(=O)[C@H](CCCNC(=N)N)NC(=O)[C@H](CC(C)C)NC(=O)[C@H](CCCNC(=N)N)NC(=O)[C@@H](N)C(C)C)C(=O)N[C@@H](CCCNC(=N)N)C(=O)N[C@H](C(=O)N[C@@H](CCCNC(=N)N)C(=O)N[C@H](C(=O)N[C@H](C(=O)N[C@@H](CCCNC(=N)N)C(=O)N[C@@H](CCCCN)C(N)=O)[C@@H](C)CC)C(C)C)C(C)C [HH11, VRLRIRVRVIRK] (H-VRLRIRVRVIRK-NH2; N-terminus assumed)	3 µg/mL (≈ 1.92 µM)	3 µg/mL (≈ 1.92 µM)	0.8 µg/mL (≈ 0.512 µM)	12 µg/mL (≈ 7.68 µM)	6 µg/mL (≈ 3.84 µM)	6 µg/mL (≈ 3.84 µM)	1.6 µg/mL (≈ 1.02 µM)	–	–	–	–	–	–
CC[C@H](C)[C@H](NC(=O)[C@H](CCCNC(=N)N)NC(=O)[C@H](Cc1c[nH]c2ccccc12)NC(=O)[C@H](CCC(N)=O)NC(=O)[C@@H](N)Cc1c[nH]cn1)C(=O)N[C@@H](CCCNC(=N)N)C(=O)N[C@H](C(=O)N[C@@H](C)C(=O)N[C@H](C(=O)N[C@@H](CCCNC(=N)N)C(=O)N[C@@H](CCCNC(=N)N)C(=O)N[C@@H](Cc1c[nH]cn1)C(N)=O)C(C)C)C(C)C [HH14, HQWRIRVAVRRH] (H-HQWRIRVAVRRH-NH2)	50 µg/mL (≈ 31 µM)	25 µg/mL (≈ 15.5 µM)	12 µg/mL (≈ 7.44 µM)	>50 µg/mL	25 µg/mL (≈ 15.5 µM)	25 µg/mL (≈ 15.5 µM)	6 µg/mL (≈ 3.72 µM)	–	–	–	–	–	–
CC[C@H](C)[C@H](NC(=O)[C@H](CCCNC(=N)N)NC(=O)[C@H](Cc1ccccc1)NC(=O)[C@H](CCCNC(=N)N)NC(=O)[C@@H](N)CCCCN)C(=O)N[C@@H](CCCNC(=N)N)C(=O)N[C@H](C(=O)N[C@@H](CCCNC(=N)N)C(=O)N[C@H](C(=O)N[C@H](C(=O)N[C@@H](CCCNC(=N)N)C(=O)N[C@@H](CCCCN)C(N)=O)[C@@H](C)CC)C(C)C)C(C)C [HH15, KRFRIRVRVIRK] (H-KRFRIRVRVIRK-NH2)	6 µg/mL (≈ 3.69 µM)	12 µg/mL (≈ 7.38 µM)	0.8 µg/mL (≈ 0.492 µM)	25 µg/mL (≈ 15.4 µM)	3 µg/mL (≈ 1.84 µM)	6 µg/mL (≈ 3.69 µM)	1.6 µg/mL (≈ 0.984 µM)	–	–	–	–	–	–
CC[C@H](C)[C@H](NC(=O)[C@H](CCCNC(=N)N)NC(=O)[C@H](Cc1c[nH]c2ccccc12)NC(=O)[C@H](CCCNC(=N)N)NC(=O)[C@@H](N)CCCCN)C(=O)N[C@@H](CCCNC(=N)N)C(=O)N[C@H](C(=O)N[C@@H](CCCNC(=N)N)C(=O)N[C@H](C(=O)N[C@H](C(=O)N[C@@H](CCCNC(=N)N)C(=O)N[C@@H](CCCCN)C(N)=O)[C@@H](C)CC)C(C)C)C(C)C [HH16, KRWRIRVRVIRK] (H-KRWRIRVRVIRK-NH2)	3 µg/mL (≈ 1.8 µM)	6 µg/mL (≈ 3.6 µM)	0.8 µg/mL (≈ 0.48 µM)	12 µg/mL (≈ 7.21 µM)	3 µg/mL (≈ 1.8 µM)	3 µg/mL (≈ 1.8 µM)	1.6 µg/mL (≈ 0.961 µM)	–	–	–	–	–	–
CC[C@H](C)[C@H](NC(=O)[C@@H](N)CCCCN)C(=O)N[C@@H](Cc1c[nH]c2ccccc12)C(=O)N[C@H](C(=O)N[C@@H](CCCNC(=N)N)C(=O)N[C@@H](Cc1c[nH]c2ccccc12)C(=O)N[C@@H](CCCCN)C(N)=O)C(C)C [HH17, KIWVRWK-NH2] (H-KIWVRWK-NH2)	>50 µg/mL	>50 µg/mL	>50 µg/mL	>50 µg/mL	>50 µg/mL	>50 µg/mL	50 µg/mL (≈ 49.3 µM)	–	–	–	–	–	–
CC[C@H](C)[C@H](N)C(=O)N[C@@H](CC(C)C)C(=O)N1CCC[C@H]1C(=O)N[C@@H](Cc1c[nH]c2ccccc12)C(=O)N[C@@H](CCCCN)C(=O)N[C@@H](CCCCN)C(=O)N1CCC[C@H]1C(=O)N[C@@H](Cc1c[nH]c2ccccc12)C(=O)N[C@@H](Cc1c[nH]c2ccccc12)C(=O)N1CCC[C@H]1C(=O)N[C@@H](Cc1c[nH]c2ccccc12)C(=O)N[C@@H](CCCNC(=N)N)C(=O)N[C@@H](CCCNC(=N)N)C(N)=O [HH113, ILPWKKPWWPWRR] (H-ILPWKKPWWPWRR-NH2; N-terminus assumed)	31 µg/mL (≈ 16.8 µM)	62 µg/mL (≈ 33.5 µM)	8 µg/mL (≈ 4.33 µM)	125 µg/mL (≈ 67.6 µM)	62 µg/mL (≈ 33.5 µM)	31 µg/mL (≈ 16.8 µM)	–	31 µg/mL (≈ 16.8 µM)	–	–	–	–	–
CC[C@H](C)[C@H](N)C(=O)N[C@@H](CC(C)C)C(=O)N[C@@H](CCCCN)C(=O)N[C@@H](Cc1c[nH]c2ccccc12)C(=O)N[C@@H](CCCCN)C(=O)N[C@@H](Cc1c[nH]c2ccccc12)C(=O)N1CCC[C@H]1C(=O)N[C@@H](Cc1c[nH]c2ccccc12)C(=O)N[C@@H](Cc1c[nH]c2ccccc12)C(=O)N[C@@H](CCCCN)C(=O)N[C@@H](Cc1c[nH]c2ccccc12)C(=O)N[C@@H](CCCNC(=N)N)C(=O)N[C@@H](CCCNC(=N)N)C(N)=O [HH970, ILKWKWPWWKWRR] (H-ILKWKWPWWKWRR-NH2; N-terminus assumed)	16 µg/mL (≈ 8.13 µM)	16 µg/mL (≈ 8.13 µM)	2 µg/mL (≈ 1.02 µM)	31 µg/mL (≈ 15.7 µM)	16 µg/mL (≈ 8.13 µM)	8 µg/mL (≈ 4.06 µM)	–	8 µg/mL (≈ 4.06 µM)	–	–	–	–	–
CC[C@H](C)[C@H](N)C(=O)N[C@@H](CC(C)C)C(=O)N1CCC[C@H]1C(=O)N[C@@H](Cc1c[nH]c2ccccc12)C(=O)N[C@@H](CCCCN)C(=O)N[C@@H](Cc1c[nH]c2ccccc12)C(=O)N[C@@H](CCCNC(=N)N)C(=O)N[C@@H](Cc1c[nH]c2ccccc12)C(=O)N[C@@H](Cc1c[nH]c2ccccc12)C(=O)N[C@@H](CCCCN)C(=O)N[C@@H](Cc1c[nH]c2ccccc12)C(=O)N[C@@H](CCCNC(=N)N)C(=O)N[C@@H](CCCNC(=N)N)C(N)=O [HH971, ILPWKWRWWKWRR] (H-ILPWKWRWWKWRR-NH2; N-terminus assumed)	16 µg/mL (≈ 8.01 µM)	8 µg/mL (≈ 4.01 µM)	2 µg/mL (≈ 1 µM)	31 µg/mL (≈ 15.5 µM)	16 µg/mL (≈ 8.01 µM)	8 µg/mL (≈ 4.01 µM)	–	8 µg/mL (≈ 4.01 µM)	–	–	–	–	–
CC(C)C[C@H](NC(=O)[C@@H](N)Cc1ccccc1)C(=O)N1CCC[C@H]1C(=O)N[C@@H](CCCCN)C(=O)N[C@@H](CCCCN)C(=O)N[C@@H](Cc1ccccc1)C(=O)N[C@@H](CCCNC(=N)N)C(=O)N[C@@H](Cc1c[nH]c2ccccc12)C(=O)N[C@@H](Cc1c[nH]c2ccccc12)C(=O)N[C@@H](CCCCN)C(=O)N[C@@H](Cc1ccc(O)cc1)C(=O)N[C@@H](CCCNC(=N)N)C(=O)N[C@@H](CCCCN)C(N)=O [HH972, FLPKKFRWWKYRK] (H-FLPKKFRWWKYRK-NH2; N-terminus assumed)	31 µg/mL (≈ 16.5 µM)	31 µg/mL (≈ 16.5 µM)	8 µg/mL (≈ 4.25 µM)	>125 µg/mL	31 µg/mL (≈ 16.5 µM)	31 µg/mL (≈ 16.5 µM)	–	16 µg/mL (≈ 8.5 µM)	–	–	–	–	–
CC[C@H](C)[C@H](N)C(=O)N[C@@H](CC(C)C)C(=O)N1CCC[C@H]1C(=O)N[C@@H](Cc1c[nH]c2ccccc12)C(=O)N[C@@H](CCCCN)C(=O)N[C@@H](Cc1c[nH]c2ccccc12)C(=O)N1CCC[C@H]1C(=O)N[C@@H](Cc1c[nH]c2ccccc12)C(=O)N[C@@H](Cc1c[nH]c2ccccc12)C(=O)N1CCC[C@H]1C(=O)N[C@@H](Cc1c[nH]c2ccccc12)C(=O)N[C@@H](CCCNC(=N)N)C(=O)N[C@@H](CCCNC(=N)N)C(N)=O [Indolicidin, ILPWKWPWWPWRR-NH2, reference compound]	–	–	–	–	31 µg/mL (≈ 16.3 µM)	–	–	8 µg/mL (≈ 4.2 µM)	62 µg/mL (≈ 32.5 µM)	16 µg/mL (≈ 8.39 µM)	8 µg/mL (≈ 4.2 µM)	31 µg/mL (≈ 16.3 µM)	16 µg/mL (≈ 8.39 µM)
